In PMC11091967, “Silicon-Rhodamine Functionalized Evocalcet Probes Potently and Selectively Label Calcium Sensing Receptors In Vitro, In Vivo, and Ex Vivo” (ACS Pharmacology & Translational Science, 2024):
Where two headings read alike, the source gives them in different places.

Legend:
[1] = Photophysical characterization; format: physicochemical; design: λex / λem: unit not given here
[2] = biological target: T1, bovine serum albumin (BSA) (Bos taurus, UniProt P02769); assay: Spectrofluorometric analysis of fluorogenicity upon BSA binding; format: physicochemical
T1 construct: purchased Sigma A7906
Protocol: (§1) Spectrofluorometric measurements were carried out by using the Agilent Cary Eclipse instrument. The voltage of the photomultiplier tube (PMT) was set to 600 for EvoSiR4 and EvoSiR6, and for 500 for SiR (4). Fluorescence of the probes was measured at concentrations ranging from 30 to 3000 nM in PBS containing various amounts of bovine serum albumin (BSA) (Sigma, A7906). Quenching experiments for the calculation of BSA binding were performed by adding a 1:1 molar ratio of tannic acid dissolved in ddH2O (Sigma, 403040) to the solution prior to measuring fluorescence.

[3] = Spectrofluorometric fluorescence in PBS and effect of pH; format: physicochemical; details: PBS
Protocol: as §1

human CaSR [4] = biological target: T2, human CaSR (Homo sapiens, UniProt P41180); assay: In vitro labeling of CaSR expressing (HCAR) and control (CCL39) cells, fluorescence microscopy; format: cell-based
T2 construct: host or cells: CCL39 hamster lung fibroblasts stably transfected (HCAR), Geneticin selection
T2 sequence (P41180 20-1078): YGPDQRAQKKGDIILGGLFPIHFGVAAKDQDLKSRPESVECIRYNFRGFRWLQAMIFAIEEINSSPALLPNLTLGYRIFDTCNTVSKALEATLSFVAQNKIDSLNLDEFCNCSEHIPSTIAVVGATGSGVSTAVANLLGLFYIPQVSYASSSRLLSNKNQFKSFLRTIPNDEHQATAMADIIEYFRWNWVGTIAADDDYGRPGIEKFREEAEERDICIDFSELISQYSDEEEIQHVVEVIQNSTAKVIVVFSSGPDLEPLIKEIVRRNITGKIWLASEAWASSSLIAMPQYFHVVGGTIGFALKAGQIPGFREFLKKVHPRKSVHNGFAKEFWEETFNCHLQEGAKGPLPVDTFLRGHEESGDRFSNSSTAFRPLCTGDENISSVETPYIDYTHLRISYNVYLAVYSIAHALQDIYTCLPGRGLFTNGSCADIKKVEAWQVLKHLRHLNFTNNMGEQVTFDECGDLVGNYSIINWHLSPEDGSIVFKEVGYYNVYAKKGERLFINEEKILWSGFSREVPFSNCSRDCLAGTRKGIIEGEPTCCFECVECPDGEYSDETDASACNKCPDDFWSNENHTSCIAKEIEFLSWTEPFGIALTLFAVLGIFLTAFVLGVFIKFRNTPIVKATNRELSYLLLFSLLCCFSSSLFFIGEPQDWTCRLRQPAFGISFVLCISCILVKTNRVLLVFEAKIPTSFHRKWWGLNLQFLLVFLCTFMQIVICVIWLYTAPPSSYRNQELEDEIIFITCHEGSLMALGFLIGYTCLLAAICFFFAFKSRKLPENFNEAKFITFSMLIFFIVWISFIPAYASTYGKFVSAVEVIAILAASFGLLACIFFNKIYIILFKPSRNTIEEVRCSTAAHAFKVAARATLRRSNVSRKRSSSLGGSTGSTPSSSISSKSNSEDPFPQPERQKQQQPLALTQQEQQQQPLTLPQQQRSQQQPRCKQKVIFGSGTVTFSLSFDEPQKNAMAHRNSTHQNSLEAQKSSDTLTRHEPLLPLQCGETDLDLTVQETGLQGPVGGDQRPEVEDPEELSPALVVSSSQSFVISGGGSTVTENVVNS
Protocol: HCAR (CaSR+) and CCL39 (CaSR−) cells were kindly obtained from Novartis AG (Basel, Switzerland) and validated in house. The cells were seeded into μ-slide 18 well plates (ibidi, 81816) at a density of 5000 cells per well and were incubated for 24 h under standard culturing conditions. As our preliminary data indicated considerable nonspecific labeling of dying cells and cellular debris, a viability staining was introduced to ensure probe specificity.[29] Thus, after washing twice with HBSS, cells were incubated in 10 μM Calcein AM solution containing 0.02% Pluronic F-127 and 0.1% DMSO for 45 min at 37 °C. The solution was then removed and washed twice in HBSS before the addition of the HBSS solution containing the SiR probes. All probe solutions were protected from light exposure and contained 0.5% DMSO and various concentrations of BSA depending on the experiment. Incubation with the fluorescent probes was 20 min long, after which a single washing step was introduced with HBSS before imaging. Images of the cells (Calcein: FITC channel, SiR: Cy5 channel) were acquired with a Nikon Eclipse TI2 inverted wide-field fluorescence microscope using a 60× magnification oil immersion objective (Nikon CFI Plan Fluor, 60×, NA = 0.85). For each well, a minimum of 3 images were acquired. For each image, cells were segmented to generate labels on the FITC channel postacquisition using the deep neural network-based Cellpose package in Python 3.9 (model_type: cyto2, diameter: 200, flow_threshold: 0.4).[30] To normalize pixel intensity values across images, for each image, a background value was calculated by taking the average pixel intensity value of the pixels in which no cellular label was present and were negative for the EvoSiR label (triangle thresholding used). For each cell, the skewness of the value distribution and the mean of the Cy5 pixel intensities were calculated. The procedure for evaluating the long-term labeling (72 h) of EvoSiR probes on CCL39 and HCAR cells was similar, with the following modifications: images were retrieved using 10× magnification air objectives (Nikon CFI Plan Fluor 10×, NA = 0.3), in the neural network model, the diameter parameter was set to 30, and only the mean Cy5 pixel intensities per cell object were retrieved.

[5] = tested on: hair cells of the neuromasts within the lateral line organ; assay: In vivo labeling of neuromasts in zebrafish larvae; design: species or system zebrafish (Danio rerio); details: 4–6 dpf larvae, neuromasts identified with DiAsp
Protocol: For the neuromast labeling experiments, wild-type 4–6 days post fertilization (dpf) zebrafish larvae were incubated in 200 μL of E3 medium containing different doses of the SiR probes (500–5000 nM), 2.5 μM 4-(4-diethylaminostyryl)-1-methyl-pyridinium-iodid (DiAsp, Sigma, D3418), which specifically labels hair cells in the lateral line in 0.5% DMSO for 30 min (35). Next, washing and anesthesia were achieved by placing the larvae in a 35 mm imaging dish (MolBiTec, Imaging dish 1.5) which contained 500 μL of E3 medium with 168 mg/L MS-222 (Tricaine Mehanesulfonate, Sigma) for 10 min. After removing the solution, fish were side-embedded in the imaging dish using 500 μL of 0.75% low-melting temperature agarose (Sigma, A4018). Wide-field imaging was done using the Zeiss Axio Observer fluorescence microscope (LD A-Plan 10× objective, NA = 0.25), and confocal imaging was done using a Zeiss LSM 800 confocal fluorescence microscope (LD LCI Plan-Apochromat 25× objective, NA = 0.8).

human CaSR [6] = biological target: T2, human CaSR; assay: FLIPR-based functional CaSR calcium assay in HCAR cells; format: cell-based; details: HCAR cells
Protocol: Hamster lung fibroblasts (CCL39, CaSR−) expressing the recombinant human CaSR (HCAR, CaSR+) and nontransected controls were kindly provided by Novartis AG and were kept in standard culturing conditions (37 °C, 5% CO2) in 1/2 DMEM (Roth, 9005.1)—1/2 F-12 (Sigma, N4888–500 mL) media containing 10% FBS. Media for the HCAR cells contained 500 μg/mL Geneticin as a selection antibiotic (Thermo Fisher, 10131035). Upon reaching 90–95% confluence, cells were detached and seeded into 96-well plates (PerkinElmer, 6005182) at a concentration of 35,000 cells per well and were incubated for 24 h before the experiment. For the functional CaSR calcium assay, cells were first washed twice with HBSS medium (Sigma, H6648), and were incubated in HBSS containing 5 μM Fluo-8 AM and 0.1 mM CaCl2 for 30 min at 37 °C. Calcium transients were measured upon addition of 0.5 mM CaCl2 with the FLIPR Tetra high-throughput cellular screening systems using the 470–495 nm LED excitation and 515–575 nm bandpass emission filters. Probe solutions contained 0.5% DMSO and were added to the cells 10 min prior to the measurement. dF/F0 values were calculated as a change in the peak fluorescence value of the transient for the first 200 data points normalized to the background fluorescence of the well. […] Both cells were washed with HBSS medium twice and then incubated for 10 min at 37 °C in HBSS medium containing 0.1% BSA in the presence or absence of 10 μM evocalcet. Upon the removal of media, cells were incubated in various concentrations of EvoSiR4 and EvoSiR6 in HBSS containing 0.1% BSA for 30 min at 37 °C and were subsequently washed 3 times with 0.1% BSA and resuspended in DMSO before the fluorometric measurement. The fluorescence was measured using a Tecan GENios pro microplate reader with the following parameters: λex = 612 nm, λem = 670 nm, gain = 50 AU. Data for the EvoSiR probes and the evocalcet competition is reported as CaSR-specific fluorescence, which was calculated by dividing the absolute fluorescence of the HCAR cells with the absolute fluorescence of the CCL39 cells for each concentration.

[7] = Fluorescence quenching of SiR probes by tannic acid, spectrofluorometer; format: physicochemical
Protocol: as §1

T1 sequence (P02769 25-607): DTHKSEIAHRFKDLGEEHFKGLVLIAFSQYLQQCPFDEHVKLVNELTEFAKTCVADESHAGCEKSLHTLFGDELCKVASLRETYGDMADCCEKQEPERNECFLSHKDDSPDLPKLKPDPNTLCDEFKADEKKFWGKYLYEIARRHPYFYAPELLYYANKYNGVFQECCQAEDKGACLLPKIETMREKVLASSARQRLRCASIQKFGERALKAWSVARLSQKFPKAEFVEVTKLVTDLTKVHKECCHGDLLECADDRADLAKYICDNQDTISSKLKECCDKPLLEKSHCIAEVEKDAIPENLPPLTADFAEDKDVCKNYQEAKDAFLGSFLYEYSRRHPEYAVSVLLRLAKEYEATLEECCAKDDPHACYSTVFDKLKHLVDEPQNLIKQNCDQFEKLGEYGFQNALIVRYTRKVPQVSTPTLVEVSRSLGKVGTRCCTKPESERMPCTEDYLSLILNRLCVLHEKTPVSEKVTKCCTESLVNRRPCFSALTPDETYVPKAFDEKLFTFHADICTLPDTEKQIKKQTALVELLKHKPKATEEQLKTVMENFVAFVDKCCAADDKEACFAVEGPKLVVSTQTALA

Compound: Cc1cc(C(=O)NCCCCN)ccc1C1=C2C=CC(=[N+](C)C)C=C2[Si](C)(C)c2cc(N(C)C)ccc21 [SiR (4)]
- fluorescence lifetime τ [1]: 1.92 ± 0.733 ns
- quantum yield Φ ([1]; 94% ethanol, 750 nM, relative to Rhodamine B): 0.347
- λem ([1]; Table 1): 670
- λex ([1]; Table 1): 650
- extinction coefficient ε ([1]; absorbance at 150–1350 nM, 1 cm cuvette): 7051 M^–1 cm^–1
- increase in absolute fluorescence upon addition of 1% BSA ([2]; 1% BSA compared to PBS): no effect
- change in absolute fluorescence in response to BSA ([2]; BSA 0.01–0.1%): no significant change
- absolute fluorescence in PBS relative to EvoSiR4 and EvoSiR6 [3]: 10 times
- fold increase in skewness of pixel intensity distribution, CaSR+ (HCAR) vs CaSR- (CCL39) cells (human CaSR [4]; 500 nM probe, 0.1% BSA): no significant difference
- normalized fluorescence of the neuromasts to the background fluorescence, mean and standard deviation [5]: 1.28 ± 0.41

Compound: C[C@@H](N[C@H]1CCN(c2ccc(CC(=O)NCCCCNC(=O)OC(C)(C)C)cc2)C1)c1cccc2ccccc12 [compound 1]
- EC50 (human CaSR [6]; response to addition of 0.5 mM CaCl2, no BSA, read-out: EC50, positive allosteric modulation of CaSR activity): 0.101 ± 0.006 µM

Compound: [Ca+2].[Cl-].[Cl-] [extracellular calcium, CaCl2, reference compound]
- EC50 (human CaSR [6]; dF/F0, read-out: EC50 of intracellular calcium release in response to extracellular calcium): 252 ± 10 µM

Compound: tannic acid [reference compound]
- increase in signal-to-noise ratio of EvoSiR4 labeling (human CaSR [4]; 100 nM tannic acid, CaSR+ cells labeled with 500 nM EvoSiR4): 40%
- IC50 of quenching the fluorescence of EvoSiR probes and SiR (4) [7]: low nanomolar ranges
